A melting point compilation (Tetko et al.; mined from patent text by program, amines drawn as free bases though some values may be those of a salt)

First: CC(C)c1cc(C=C2Sc3ccccc3N(Cc3nnn[nH]3)C2=O)cc(C(C)C)c1O
Second: CC(C)c1cccc(C(C)C)c1NC(=O)CNC(c1ccccc1)c1ccc(Br)cc1 (stereo unspecified)
The melting point of the first is higher: 189 to 190 °C for the first, 154 to 155 °C for the second.

First: CCCCOC(=O)C(NC(=O)OCc1ccccc1)c1ccc(O)cc1 (stereo unspecified)
Second: CCC(COc1cccc(C(F)(F)F)c1)OC(=O)NCc1ccccc1 (stereo unspecified)
The melting point of the first is higher: 143 to 144 °C for the first, 73 to 74 °C for the second.

First: CCCCCCCCc1ccc(N(c2ccc(CCCCCCCC)cc2)C2(c3ccc(N(C)C)cc3C)OC(=O)c3ccccc32)cc1 (stereo unspecified)
Second: O=C(CCCCCCCCC(=O)Oc1ccc(C(=O)OCc2ccccc2)cc1)Oc1ccc(C(=O)OCc2ccccc2)cc1
The melting point of the first is higher: 172 to 174 °C for the first, 62.5 to 63 °C for the second.

First: CO/N=C(\C(=O)OC)c1csc(O)n1
Second: CON=C(C(C)=NN=Cc1ccccc1C(=NOC)C(=O)OC)c1ccc(Cl)cc1
The melting point of the first is lower: 97 to 98 °C for the first, 104 to 105 °C for the second.

First: CCNC(=O)CCC1CCN(Cc2cnc3cc(NC(=O)c4ccc(-c5ccc(F)cc5)cc4)c(C)cc3c2)CC1
Second: COc1ccc(-c2ccc(C(C)C)cc2)c(C(=O)Nc2ccc(N3CCN(CC(N)=O)CC3)cc2)c1
The melting point of the first is higher: 227 to 230 °C for the first, 207 to 209 °C for the second.

First: CN1C[C@@H]2c3ccccc3Oc3ccc(Cl)cc3[C@H]2C1=O (relative stereo)
Second: CC(=O)NCC1CN(c2ccc(-c3cccc(CCl)c3)c(F)c2)C(=O)O1 (stereo unspecified)
The melting point of the first is higher: 151 °C for the first, 128 to 130 °C for the second.

First: CN(C)CC1(C2(O)CCCCC2)Cc2cc3c(cc21)NCC3 (stereo unspecified)
Second: CC(=O)N1CCC(CCC(=O)c2ccc3c(c2)CCN3)CC1
The melting point of the first is higher: 159 to 161 °C for the first, 145 to 146 °C for the second.

First: CC(C)(C)C(=O)Nc1ccc(Br)cc1-c1ccnc(C(F)(F)F)n1
Second: CCc1cc(Br)cc(C(=O)Nc2ccc(F)cn2)n1
The melting point of the first is higher: 153 to 157 °C for the first, 124 °C for the second.

Compared with S=c1[nH]c(-c2ccccc2)c(-c2ccccc2)n1Nc1cccc(Cl)c1, O=C1OC(=O)c2c(Cl)c(Sc3ccccc3)c(Sc3ccccc3)c(Cl)c21 is higher in melting point: 178 to 180 °C for the first, 204 to 207 °C for the second.

First: CCCC(=O)N[C@H]1C[C@H](C(=O)OC)Nc2cc(Cl)cc(Cl)c21 (relative stereo)
Second: CCC(OC(=O)C1CC1)c1ccc(Cl)c2nc3n(c12)CCCN3c1ncc(Cl)cc1Cl (stereo unspecified)
The melting point of the first is higher: 205 to 206 °C for the first, 154 to 155 °C for the second.

First: Cc1nc2ncnn2c(C2CCCCC2)c1-c1c(F)cc(OCCCN(C)C)cc1F
Second: COc1ccc(CNc2n[nH]cc2C)cc1OC1CCCC1
The melting point of the first is higher: 95 to 97 °C for the first, 76 to 77 °C for the second.

Compared with CC(C)COC(=O)CCC12CCC(=O)N1C(=O)CC2, O=C1CCC2(CC1)CC(=O)NC2=O is higher in melting point: 102 to 104 °C for the first, 154 °C for the second.

First: COC(=O)C[C@H]1[C@@H](C(C)=O)C(=O)N1C(c1ccccc1)(c1ccccc1)c1ccccc1
Second: CN(C)c1ccccc1CC(=O)N1C[C@@H]2[C@H](F)CCC(c3ccccc3)(c3ccccc3)[C@@H]2C1
The melting point of the first is lower: 52 to 54 °C for the first, 186 °C for the second.

Compared with O=[N+]([O-])c1cnn(-c2ccc(Cl)nn2)c1, Cn1ncc(C(=O)c2ccc(S(C)(=O)=O)c(C3=NC(C)(C)CO3)c2Cl)c1O is lower in melting point: 169 to 172 °C for the first, 132 to 135 °C for the second.

Compared with Cc1ccc(S(=O)(=O)N(C)F)cc1, CCOC(=O)/C=C/c1c(-c2ccccc2)c2ccccc2c(=O)n1C is higher in melting point: 42 to 44 °C for the first, 163 to 165 °C for the second.

Compared with C=CCSc1nc(N)nc2c1ncn2C1C=CC(CO)C1 (stereo unspecified), CCOC(=O)c1ncn(-c2nncs2)c1S(N)(=O)=O is higher in melting point: 108 to 110 °C for the first, 168 to 171 °C for the second.

Compared with O=C1C=CC(O)(c2nc3ccccc3s2)C=C1, N#Cc1c2ccccc2c(-c2ccc(O)cc2)c2c1sc1ccccc12 is higher in melting point: 63 to 66 °C for the first, 307 to 309 °C for the second.

First: Cn1cc(-c2cccc(N3CCc4c(cc5n4CCCC5)C3=O)c2CO)nc(Nc2ccc3c(c2)CNCC3)c1=O
Second: Cn1ccc2cc(N3Cc4ccc(O)cc4C3=O)ccc21
The melting point of the first is lower: 218 to 220 °C for the first, 230 to 235 °C for the second.

Compared with CC(=O)Nc1ccc(OC(=O)c2cc(OC(C)=O)ccc2OC(C)=O)cc1, CC(=O)Nc1ccc(C=C2C(=S)c3cc(C)ccc3OC2c2ccccc2)cc1 (stereo unspecified) is higher in melting point: 148 to 150 °C for the first, 197 to 198 °C for the second.

First: CC(=O)n1nc(C)c(Oc2cc(F)cc(C#N)c2)c1C
Second: COc1cc2oc(=O)c(CCO)c(C)c2cc1OC
The melting point of the first is lower: 109 to 111 °C for the first, 184 to 187 °C for the second.

Compared with COc1cccc2c(CCCNC3COc4c(F)ccc(C(N)=O)c4C3)coc12 (stereo unspecified), CC(C)C(=O)c1ccc2oc3ncccc3c(=O)c2c1 is lower in melting point: 163 to 166 °C for the first, 155 to 156 °C for the second.

First: CCc1cc(-c2ccc(Cl)cc2)nc2c(C(=O)Nc3cccc(S(N)(=O)=O)c3)cnn12
Second: O=C(O)CCCc1cc2cc(Cl)ccc2n1S(=O)(=O)c1ccc2nsnc2c1
The melting point of the first is higher: 252 to 253 °C for the first, 172 to 175 °C for the second.

First: CN(C)C(=O)c1cnn(C)c1C(=O)Nc1ccn2nc(N3CCOCC3)nc2c1
Second: CC(=O)c1cnc2c(NC(=O)c3c(Cl)cccc3Cl)cccc2c1N1CCOCC1
The melting point of the first is higher: 237 to 240 °C for the first, 231 to 233 °C for the second.

Compared with CCOC(=O)c1cn(C2CC2)c2c(F)c(N3CCNC(C)C3)c(F)c(N)c2c1=O (stereo unspecified), CC1CNCCN1c1c(F)c(N)c2c(=O)c(C(=O)O)cn(C3CC3)c2c1F (stereo unspecified) is higher in melting point: 132 to 134 °C for the first, 224 to 226 °C for the second.

First: O=C(O)C=CC(=O)NCCC(F)=C(F)F
Second: N[C@@H](CO)C(=O)NCc1ccccc1
The melting point of the first is lower: 64 to 66 °C for the first, 76 to 80 °C for the second.

Compared with Cc1cc(C)n(Cc2ccc(OCc3nc(-c4ccccc4)oc3C)cc2)n1, Cn1ncc(/C=C/C(=O)Nc2ccc(OCc3nnco3)cc2)c1-c1ccc(F)cc1 is higher in melting point: 86 to 87 °C for the first, 154 to 155 °C for the second.

Compared with CC(=O)OC1CCC2C3CCC4=CC(=O)CCC4(CO)C3CCC12C (stereo unspecified), CC(C)N1CCN(C(=O)OC2CCN(c3ccc(C(N)=O)cn3)CC2)CC1 is higher in melting point: 166 to 168 °C for the first, 200 to 204 °C for the second.

Compared with OCc1cccc(-c2nn(-c3ccc(F)cc3F)c3c2C2CCC3C2)c1 (stereo unspecified), O=C1CCc2cc(-c3cccnc3)ccc21 is lower in melting point: 113 to 115 °C for the first, 103 to 106 °C for the second.

Compared with NC(=O)CCN(CCC(N)=O)Cc1ccccc1, O=C(CCC(O)c1ccccc1)N1CCCCC1 (stereo unspecified) is lower in melting point: 103 to 106 °C for the first, 42 to 44 °C for the second.

Compared with NC1=CC(=O)CC(c2c(Cl)cccc2Cl)C1 (stereo unspecified), CCNC1CCc2[nH]c3ccccc3c2C1 (stereo unspecified) is lower in melting point: 216 to 217 °C for the first, 128 to 129 °C for the second.

First: NC(=O)CN1C(=O)[C@@H](N)[C@H](c2ccccc2)Sc2ccccc21 (relative stereo)
Second: CNC(=O)c1cc(NCc2c(C)cccc2C)c2nc(C)[nH]c2c1
The melting point of the first is lower: 196 to 200 °C for the first, 298 °C for the second.

First: CON1C(C)(C)CC(OC(=O)c2ccccc2C(=O)OC2CC(C)(C)N(OC)C(C)(C)C2)CC1(C)C
Second: Cc1cc2c(cc1-c1ccc(C#CC(=O)O)s1)C(C)(C)CCC2(C)C
The melting point of the first is lower: 124 to 126 °C for the first, 138 to 140 °C for the second.

First: NS(=O)(=O)OCCCCCOS(N)(=O)=O
Second: CC(=O)OCCCc1cc(C=C2SCN(C)C2=O)cc(CCCOC(C)=O)c1O
The melting point of the first is lower: 96.5 to 99 °C for the first, 112 to 116 °C for the second.

First: COC(=O)c1ccc2nc(CC(C)C)c(CNC(=O)OC(C)(C)C)c(-c3ccc(C)cc3)c2c1
Second: CCOC(=O)Nc1c([N+](=O)[O-])cc(C)c(C)c1[N+](=O)[O-]
The melting point of the first is higher: 192 to 194 °C for the first, 51 to 54 °C for the second.

First: O=c1ccc2cc(C(O)(C(F)(F)F)C(F)(F)F)cc3c2n1CCC3
Second: NC(=O)NN=Cc1ccc(OCC2CCCCC2)cc1
The melting point of the first is higher: 295 to 296 °C for the first, 218 to 219 °C for the second.

Work on CN(C)c1nc2n(n1)CC1=CSC(=O)C1=N2 yielded a melting point of 295 to 298 °C.
